Source: US7163946B2 (Ligand Pharmaceuticals Incorporated, priority 2002, dated 2007)
Read-outs that look alike come from different tables or passages of the source.

Legend:
[1] = molecular target: T1, hPR (Homo sapiens, UniProt P06401); experiment: hPR cotransfection assay in CV-1 cells, antagonist mode; assay type: cell-based; details: CV-1 cells
T1 sequence (P06401 1-933): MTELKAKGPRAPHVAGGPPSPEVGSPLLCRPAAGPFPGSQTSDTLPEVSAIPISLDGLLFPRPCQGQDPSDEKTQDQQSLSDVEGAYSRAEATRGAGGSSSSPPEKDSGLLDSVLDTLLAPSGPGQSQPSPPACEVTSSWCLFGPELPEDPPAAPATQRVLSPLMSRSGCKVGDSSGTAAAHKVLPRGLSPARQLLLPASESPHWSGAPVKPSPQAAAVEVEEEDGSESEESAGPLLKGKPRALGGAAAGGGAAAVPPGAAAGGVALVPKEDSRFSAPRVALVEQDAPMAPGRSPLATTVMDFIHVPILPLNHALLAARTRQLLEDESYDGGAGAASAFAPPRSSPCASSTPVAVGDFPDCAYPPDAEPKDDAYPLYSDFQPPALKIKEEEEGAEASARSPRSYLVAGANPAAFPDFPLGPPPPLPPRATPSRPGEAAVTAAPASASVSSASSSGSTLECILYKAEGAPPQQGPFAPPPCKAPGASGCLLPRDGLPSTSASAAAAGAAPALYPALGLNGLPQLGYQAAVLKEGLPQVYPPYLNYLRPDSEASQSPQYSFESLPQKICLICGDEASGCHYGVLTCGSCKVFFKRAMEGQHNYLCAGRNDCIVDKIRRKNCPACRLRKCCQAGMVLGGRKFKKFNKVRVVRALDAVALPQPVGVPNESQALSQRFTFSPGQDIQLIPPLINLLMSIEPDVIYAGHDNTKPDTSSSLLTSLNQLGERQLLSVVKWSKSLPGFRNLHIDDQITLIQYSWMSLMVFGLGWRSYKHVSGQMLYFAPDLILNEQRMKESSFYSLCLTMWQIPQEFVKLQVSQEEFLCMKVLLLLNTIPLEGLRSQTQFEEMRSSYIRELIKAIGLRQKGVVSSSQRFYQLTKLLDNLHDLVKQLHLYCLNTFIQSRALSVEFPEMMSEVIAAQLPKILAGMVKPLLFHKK
Method: (§1) Antagonist efficacy was determined as a function (%) of maximal inhibition of a reference agonist at EC50 concentration. All the cotransfection experiments were carried out in 96-well plates by automation (Beckman Biomomek automated workstation).

[2] = molecular target: T1, hPR; experiment: hPR cotransfection assay in CV-1 cells, agonist mode; assay type: cell-based; details: CV-1 cells
Method: as §1

[3] = test system: ovariectomized female rats; experiment: Multi-endpoint adult rat model, uterus/breast tissue-selectivity; assay type: in vivo; details: ratio of relative efficacy to MPA in uterus verse in breast tissue at the same highest dose tested; estrone-treated ovariectomized rats, three days
Source text: In this assay, advantage is taken of the fact that in the uterus, estrogens induce a proliferation and increase in the epithelial cell height and uterine wet weight, which can be antagonized by progestins. In the breast, estrogens induce a proliferation of the ductal network while progestins stimulate the growth of the lobular-alveolar end buds, which grow from the distal end of the ducts. […] Proliferating cells or inhibition of proliferating cells were quantitated either by measurements of cell height in sectioned and stained tissue samples or, in the case of the breast, immuno-histochemically labeled Brdu incorporated nuclei.

[4] = test system: immature rabbits; experiment: McPhail (Clauberg) rabbit assay of progestational activity; assay type: in vivo; details: Oryctolagus cuniculus; estradiol-primed immature rabbits; glandular changes of the uterus; read-out: potency (MAD in mg/kg), minimum active dose
Method: The superiority of the 7,9-difluoro analogue compounds of the present invention was further characterized utilizing the McPhail rabbit model according to the following illustrative Examples. The Clauberg or McPhail assay is a classic assay utilizing rabbits to measure progestational activity. […] In this assay, immature rabbits are treated initially with estradiol, which induces growth in the uterus. This is followed by a progestin, which causes a large change in the glandular content of the uterus. It is this change in the glandular component which is a measure of the progestational activity of a progestin. The measurement of these glandular changes is carried out histologically using stained sections of the uterus. The in vivo comparison between the new 7,9-difluoro compounds and analogues with substitution patterns different from 7,9-difluoro (U.S. Pat. Nos. 5,693,646 and 5,696,127) is tabulated in Tables 7 and 8. The in vivo potency of the progestins is presented as the minimum active dose (MAD).

[5] = molecular target: T2, hPR (Homo sapiens, UniProt P06401); experiment: T47D alkaline phosphatase assay, agonist mode; assay type: cell-based; details: T47D human breast cancer cells
T2 sequence (P06401 679-933 limits assumed): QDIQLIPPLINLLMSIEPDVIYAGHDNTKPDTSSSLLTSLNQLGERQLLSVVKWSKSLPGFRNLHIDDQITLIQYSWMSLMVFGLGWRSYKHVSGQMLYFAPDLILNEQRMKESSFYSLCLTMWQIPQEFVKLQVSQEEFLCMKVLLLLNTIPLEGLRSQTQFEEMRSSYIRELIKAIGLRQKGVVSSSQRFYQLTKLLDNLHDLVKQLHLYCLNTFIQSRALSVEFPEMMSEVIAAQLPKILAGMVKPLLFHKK
Source text: The potential tissue-selectivities of the selected analogues were examined by using the T47D alkaline phosphatase assay that was developed from human breast cancer cells with endogenous PRs.

[6] = molecular target: T3, hPR-A (Homo sapiens, UniProt P06401); experiment: Receptor competitive binding assay; details: read-out: PR binding Ki
T3 sequence (P06401 1-769 isoform P06401-2): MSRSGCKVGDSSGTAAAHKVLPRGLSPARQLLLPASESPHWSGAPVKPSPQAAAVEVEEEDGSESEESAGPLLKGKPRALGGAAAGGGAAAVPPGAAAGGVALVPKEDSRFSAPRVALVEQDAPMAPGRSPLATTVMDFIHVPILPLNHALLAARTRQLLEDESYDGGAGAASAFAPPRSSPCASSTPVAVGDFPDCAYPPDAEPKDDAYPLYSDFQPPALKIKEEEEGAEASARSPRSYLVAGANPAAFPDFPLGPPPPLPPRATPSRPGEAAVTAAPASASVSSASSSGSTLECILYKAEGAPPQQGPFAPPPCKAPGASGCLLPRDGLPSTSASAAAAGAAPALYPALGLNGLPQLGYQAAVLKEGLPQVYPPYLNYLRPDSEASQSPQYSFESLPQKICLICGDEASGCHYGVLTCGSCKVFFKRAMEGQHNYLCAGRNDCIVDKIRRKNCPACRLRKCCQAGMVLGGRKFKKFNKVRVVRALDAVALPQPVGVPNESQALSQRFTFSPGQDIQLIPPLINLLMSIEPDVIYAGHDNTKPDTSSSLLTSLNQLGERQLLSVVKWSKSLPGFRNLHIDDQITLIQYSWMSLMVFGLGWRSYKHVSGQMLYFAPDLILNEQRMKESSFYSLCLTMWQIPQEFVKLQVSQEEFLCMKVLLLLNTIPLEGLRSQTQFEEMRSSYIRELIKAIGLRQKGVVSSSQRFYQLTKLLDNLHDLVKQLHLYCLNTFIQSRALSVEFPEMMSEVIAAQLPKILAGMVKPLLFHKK

[7] = molecular target: T1, hPR
[8] = footnote a: EC50 data from U.S. Pat. Nos. 5693646/5693647/5696127; read-out: hPR agonist potencies (EC50 in nM) in the cotransfection assay; cited from earlier work
[9] = footnote b: EC50 data from J. Med. Chem. 41 (1998), 291 and 303; read-out: hPR agonist potencies (EC50 in nM) in the cotransfection assay; cited from earlier work

SMILES | uterus/breast tissue-selectivity [3] | EC50 [7, 8] | EC50 [7, 9] | other results
CC1=CC(C)(C)Nc2ccc3c(c21)C(c1ccc(Cl)c(C)c1)Oc1c(F)cc(F)cc1-3 (single isomer, unassigned; (-)) [Compound 38, (−)-7,9-difluoro-5-(4-chloro-3-methylphenyl)-1,2-dihydro-2,2,4-trimethyl-5H-chromeno[3,4-f]quinoline] | 2.8 |  |  | IC50 [1]: > 10000 nM; hPR Antagonist CV-1 Cells Eff. (%) ([1]; maximal inhibition of reference agonist at EC50 concentration): na (na = not active (i.e. efficacy of <20 and potency of >10,000)); EC50 ([2]; read-out: hPR Agonist CV-1 Cells EC50): 1.2 nM; hPR Agonist CV-1 Cells Eff. (%) ([2]; relative to maximal response of progesterone as 100%): 110%; minimal effective dose [4]: 0.25 mg/kg; EC50 [5]: 6.2 nM; hPR Agonist T47D cells Eff. (%) [5]: 54%; Ki [6]: 2 nM
CC1=CC(C)(C)Nc2ccc3c(c21)C(c1cccc(F)c1)Oc1ccccc1-3 (centres unmarked) [Formula I X=H 3-F-Ph] |  | 9 nM |  | 
CC1=CC(C)(C)Nc2ccc3c(c21)C(c1ccccc1)Oc1ccccc1-3 (centres unmarked) [Formula I X=H Ph, reference compound] | 0.78 | 203 nM |  | 
CC1=CC(C)(C)Nc2ccc3c(c21)C(=Cc1ccccc1C)Oc1ccc(F)cc1-3 [Formula II X=9-F 2-Me-Ph, reference compound] | 2.3 | 4 nM |  | minimal effective dose [4]: 1.2 mg/kg
CC1=CC(C)(C)Nc2ccc3c(c21)C(=Cc1cc(F)ccc1F)Oc1ccccc1-3 [Formula II X=H 2,5-diF-Ph] |  |  | 14.7 nM | 
CC1=CC(C)(C)Nc2ccc3c(c21)C(=Cc1ccccc1Cl)Oc1ccccc1-3 [Formula II X=H 2-Cl-Ph] |  |  | 57.8 nM | 
CC1=CC(C)(C)Nc2ccc3c(c21)C(=Cc1ccccc1F)Oc1ccccc1-3 [Formula II X=H 2-F-Ph] |  |  | 29 nM | 
CC1=CC(C)(C)Nc2ccc3c(c21)C(=Cc1ccccc1C)Oc1ccccc1-3 [Formula II X=H 2-Me-Ph] |  |  | 5.7 nM | 
CC1=CC(C)(C)Nc2ccc3c(c21)C(=Cc1cccc(F)c1)Oc1ccccc1-3 [Formula II X=H 3-F-Ph, reference compound] | 0.69 |  |  | EC50 ([7]; read-out: hPR agonist potencies (EC50 in nM) in the cotransfection assay; footnote b: EC50 data from J. Med. Chem. 41 (1998), 291 and 303; cited from earlier work): 7.6 nM
CC1=CC(C)(C)Nc2ccc3c(c21)C(=Cc1ccc(F)cc1)Oc1ccccc1-3 [Formula II X=H 4-F-Ph] |  |  | 59.5 nM | 
CC1=CC(C)(C)Nc2ccc3c(c21)C(=Cc1ccccc1)Oc1ccccc1-3 [Formula II X=H Phenyl] |  | 33 nM |  | 
